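Cultured in 96-well plates, cells were exposed to test compound for 48 hours across five concentrations. Here, GI50 denotes the concentration required for 50% inhibition of growth. TGI: concentration producing complete growth inhibition.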 A value given as a limit tells only on which side of the number the result lay.

Common to all, as to assay: NCI-60 cell line screen, 48 h
Assay [1] concerns EKVX NSCLC.
In assay [2] the test system is SF-295 CNS.
For assay [3], the system named is SK-OV-3 ovarian.
Assay [4] concerns OVCAR-3 ovarian.
Assay [5] relates to NCI/ADR-RES ovarian.
The test system of assay [6] is OVCAR-5 ovarian.
In assay [7] the test system is IGROV1 ovarian.
Assay [8] relates to NCI-H522 lung.
The test system of assay [9] is OVCAR-8 ovarian.
Assay [10] relates to PC-3 prostate.

For `COc1ccc(C(=O)c2cc(C)c(OC)c(C)c2)cc1OC(=O)CCl`, the GI50 in assay [1] is 0.0928 µM; in [2], under 0.0229 µM; in assay [3], under 0.0238 µM; in [4], under 0.01 µM; in [5], under 0.01 µM; in assay [6] it was 1.71 µM. Besides, the GI50 in assay [7] is 0.0352 µM; in assay [8] it was under 0.01 µM; in assay [9], under 0.01 µM; in assay [10], under 0.021 µM. Further, the TGI is over 100 µM in assay [1]; over 86 µM in assay [2]; over 100 µM in assay [3]; 1.08 µM in assay [4]; over 63.5 µM in [5]; over 100 µM in assay [6]. The TGI in [7] is over 100 µM; in assay [8], under 0.01 µM; in assay [9] it was over 100 µM; in [10], over 100 µM.
Regarding `COc1ccc(C(=O)c2cc(OC)c(OC)c(OC)c2)cc1/C=C/C(=O)c1ccc(F)cc1`, the GI50 was 11.1 µM in assay [1]; 7.21 µM in [2]; 17.9 µM in [3]; 4.83 µM in assay [4]; 3.69 µM in [5]; 2.67 µM in [6]. For the same compound, the GI50 in [7] was 2.59 µM; in assay [8], 2.02 µM; in [9], 3.7 µM; in assay [10] it was 3.3 µM. Further, the TGI is 31.4 µM in assay [1]; 37.3 µM in assay [2]; 73.1 µM in assay [3]; 15.5 µM in assay [4]; 73.2 µM in [5]; 11.5 µM in assay [6]. Moreover, the TGI in assay [7] stood at 6.73 µM; in assay [8], 5.34 µM; in assay [9], 37.8 µM; in [10], 13.7 µM.
Consider `CCCCC(CC)COC(=O)C[N+](C)(C)CCOC(c1ccccc1)c1ccccc1` (configuration not stated), for which the GI50 in [1] was 3.76 µM; in assay [2], 9.63 µM; in assay [3], 6.38 µM; in assay [4], 1.79 µM; in assay [5] it was 23.5 µM; in [6] it was 4.11 µM. Further, the GI50 in [7] was 1.82 µM; in assay [8], 1.75 µM; in assay [9], 4.02 µM; in assay [10] it was 3.21 µM. Besides, the TGI in [1] came out at 15.9 µM; in assay [2], 26.3 µM; in [3], 21.8 µM; in assay [4], 3.64 µM; in [5], 70.3 µM; in [6], 15.8 µM. Also, the TGI in assay [7] came out at 3.58 µM; in assay [8] it was 3.67 µM; in [9], 17.5 µM; in [10], 11.7 µM.
`COc1ccc(C(=O)c2cc(C)c(OC)c(C)c2)c(OC)c1O`: the GI50 was 0.238 µM in assay [1]; 0.0396 µM in assay [2]; 0.228 µM in assay [3]; 0.0374 µM in assay [4]; 0.0257 µM in [5]; 4.9 µM in assay [6]. In addition, the GI50 in assay [7] is 0.672 µM; in assay [8] it was under 0.0189 µM; in assay [9], 0.0459 µM; in assay [10] it was 0.0402 µM. The TGI in assay [1], in assay [2], in [3], in assay [6], in assay [7] and in [9] was over 100 µM in each case. Besides, in [10], the TGI is over 100 µM.
`NS(=O)(=O)c1ccc(-c2ccc3c(NC(=O)C4CC4)n[nH]c3c2)cc1`: the GI50 in assay [1], in assay [2], in assay [3], in assay [4], in [5] and in assay [6] was over 25 µM each time. Besides, the GI50 in assay [7], in assay [8], in [9] and in [10] was over 25 µM throughout. For the same compound, the TGI in assay [1], in assay [2], in assay [3], in [4], in assay [5] and in assay [6] was over 25 µM each time. For the same compound, the TGI in assay [7], in assay [8], in assay [9] and in assay [10] was over 25 µM in each case.
For `C=CCCCCC/C=C\[C@@H](O)C#CC#C/C=C/CO`, the GI50 in assay [1] was over 100 µM; in [2] it was over 100 µM; in assay [3], over 100 µM; in [4], 41.7 µM; in assay [5], over 100 µM; in assay [6], over 100 µM. The GI50 is 23.5 µM in assay [7], 26 µM in assay [8], 25.1 µM in assay [9] and 28 µM in assay [10]. The TGI in assay [1], in assay [2], in [3], in assay [4], in [5] and in assay [6] was over 100 µM throughout. The TGI was over 100 µM in assay [7], 98.7 µM in [8], 68.9 µM in assay [9] and over 100 µM in assay [10].
